Legend:
streptavidin = target: T1, streptavidin (Streptomyces avidinii, UniProt P22629); experiment: Stability of streptavidin immobilized on gold slides after exposure to a liquid crystal (binding of fluorescently labeled biotin); settings: 2 hrs incubation
T1 construct: purchased Pierce Biotechnology

[1] = Optical microscopy of aqueous β-peptide solutions between crossed polarizing filters (birefringence = LC phase formation); format: physicochemical; settings: aqueous solution
Text: The inventors used optical microscopy for initial evaluation of aqueous solutions of 1-5. For each β-peptide, aqueous solutions of varying concentration were drawn into microcapillaries and examined between crossed polarizing filters at room temperature (FIGS. 1 and 3). In such experiments, the observation of birefringence is taken as evidence of LC phase formation. […] Increasing β-peptide length by one triad, to generate 3, led to LC behavior at lower concentrations, as shown by the image obtained for a 10 wt % sample (61 mM, FIG. 1C). […] Thus, self-assembly of the chiral helix formed by 3 induced a helical ordering of molecules in the LC phase whereas the two-turn, chiral helix formed by 2 was unable to induce this higher ordered phase.
β-Peptides were weighed into glass vials, diluted to the desired concentration with water, and left on an oscillatory shaker overnight to ensure dissolution. β-peptide solutions were then drawn into a 2 μL microcapillary (Drummond), and the ends were sealed with a high viscosity vacuum grease (Dow-Corning) Microcapillaries were placed on a glass slide and imaged on an Olympus BX-60 microscope (Tokyo, Japan) in transmission mode between crossed polarizing filters using a digital camera (Olympus C2020 Zoom). […] Temperature was recorded from a thermostat but was not further calibrated.
Materials and Methods • Materials. […] Solvent A and Solvent B for RP-HPLC were 0.1% trifluoroacetic acid (TFA) in Millipore water and 0.1% TFA in acetonitrile, respectively. β-peptide purity was assessed using a Vydac C18 analytical column using a flow rate of 1 mL/min from 10-60% B over 50 minutes monitoring at 220 and 273 nm. • MALDI-TOF-MS (matrix-assisted laser desorption-ionization-time-of-flight mass spectrometry) data were collected on a Bruker REFLEX II spectrometer with a 337 nm laser using α-cyano-4-hydroxycinnamic acid as matrix. […] To assess the upper limit of concentration, a 1 μL droplet of a concentrated peptide solution was allowed to slowly evaporate while being monitored for birefringence. […]

T1 sequence (P22629 25-183): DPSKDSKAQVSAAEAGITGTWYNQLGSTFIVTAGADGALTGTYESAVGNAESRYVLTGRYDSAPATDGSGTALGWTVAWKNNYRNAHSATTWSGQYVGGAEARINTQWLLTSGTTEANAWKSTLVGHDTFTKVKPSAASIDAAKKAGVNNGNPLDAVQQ

In the case of `O=C([O-])c1cc(=O)c2c(OCC(O)COc3cccc4oc(C(=O)[O-])cc(=O)c34)cccc2o1.[Na+].[Na+]` [disodium chromoglycate], the “state of immobilized streptavidin after incubation with the liquid crystal” value (“state of immobilized streptavidin” for short) (streptavidin; 16 wt %) is reported as “streptavidin is still able to bind biotin”.
In the case of `CCCCCCCCCCOS(=O)(=O)[O-].[Na+]` [sodium decyl sulfate], the “state of immobilized streptavidin” value (streptavidin; 32 wt %) is reported as “the protein is denatured”.
For “pentanoyl-NH-β^3hTyr-(ACHC-ACHC-β^3hLys)3 [pentanoyl-β^3hTyr-(ACHC-ACHC-β^3hLys)3]”, the “state of immobilized streptavidin” value (streptavidin; 1 wt %) was “streptavidin is still able to bind biotin”.
For “β^3-hTyr-(ACHC-β^3-hPhe-β^3-hLys)3 scram”, the “LC phase formation / birefringence (result in words)” value [1] was “strong birefringence”.
Molecule `NCCCC[C@@H](CC(N)=O)NC(=O)C[C@H](Cc1ccccc1)NC(=O)[C@H]1CCCC[C@@H]1NC(=O)C[C@H](CCCCN)NC(=O)C[C@H](Cc1ccccc1)NC(=O)[C@H]1CCCC[C@@H]1NC(=O)C[C@H](CCCCN)NC(=O)C[C@H](Cc1ccccc1)NC(=O)[C@H]1CCCC[C@@H]1NC(=O)C[C@@H](N)Cc1ccc(O)cc1` [β-peptide iso-A] has a solubility limit [1] of over 10 wt %.
With “β^3-hTyr-(ACHC-ACHC-β^3-hLys)2 [β-peptide 2]” the “type of LC phase suggested by optical texture” value ([1]; room temperature, 2 at 19 wt %, 3 at 10 wt %) was “nematic”.

— US8021570B2, “β-peptide lyotropic liquid crystals and methods of manufacture and use thereof” (Wisconsin Alumni Research Foundation, priority 2006, dated 2011)
